# Laboratory results: patent publication US7737121B2, “Insulin secretion by anthocyanins and anthocyanidins” (Board of Trustees of Michigan State University, priority 2004, dated 2010)
# Assays:
# INS-1 832/13 cells = assay: Insulin secretion by INS-1 832/13 pancreatic beta cells (static secretion, insulin by RIA, normalized to cellular protein); assay type: cell-based, rodent; settings: for increase in insulin secretion: increase over untreated cells; for fold increase in insulin secretion: versus untreated cells
# Protocol: Insulin Secretion Studies. INS-1 832/13 cells (kindly provided by Dr Christopher Newgard, Duke University, NC) (18) were routinely cultured in 5% CO2/air at 37° C. in RPMI-1640 medium containing 11.1 mM glucose and supplemented with 10% FBS (Fetal Bovine Serum), 10 mM HEPES, 100 U/ml penicillin, 100 μg/ml streptomycin, 4 mM Glutamine, 1 mM sodium pyruvate, and 50 μM 2-mercaptoethanol. Cells were passed weekly after trypsin-EDTA detachment. For static secretion studies, cells were plated on 24 well plates at a density of 0.64×10^6 cells per well and grown for 24 h. The cells were then cultured for an additional 24 h in RPMI-1640 containing 4 mM glucose and the supplements described above. Cells were then incubated twice for 30 min in Krebs Ringer Bicarbonate buffer (KRBB) containing 4 mM glucose and 0.1% BSA. Cells were rapidly washed with KRBB and incubated for 60 min KRBB containing 4 or 10 mM glucose with or without the indicated anthocyanins or anthocyanidins. The medium was then removed for determining insulin release. The cells were then washed twice with PBS and dissolved in 1 M NaOH. Cellular protein concentration was then determined by Lowry assay. Anthocyanins and anthocyanidins were dissolved in DMSO to obtain desired concentrations. Final concentration of DMSO was 0.1%. The insulin secreted into the medium by the cells was determined by radioimmuno assay and normalized to total cellular protein.
# Radio Immuno Assay (RIA). The Kit for RIA was purchased from LINCO Research Inc. (St Charles, Mo.), and the assay was conducted according to the manufacturer's directions. Briefly, 0.1-10 ng of insulin standards (100 μl) were added to 12×75 mm test tubes. Similarly, samples (25 μl) from the insulin secretion studies were also added to the test tubes. To this, an aliquot (75 μl) of assay buffer was added. The ^125I labeled insulin (100 μl) was then added to each test tube. […] The tubes were then centrifuged and the radioactivity was measured using a gamma counter.
# Lowry protein Assay. The amount of protein in the assay wells was determined by Lowry method (Francis, J. A., et al., Helv. Chim. Acta 87 317-326 (2004)). The Lowry assay solution was prepared by combining the Lowry solution, CuSO4.5H2O (1%), and sodium tartarate (1%). Briefly, the protein sample (100 μl) and Lowry mixture (1 mL) were mixed in a test tube (12×75). The Folin-Ciolatues reagent (100 μl) was added to these tubes, mixed, and incubated for 30 min at room temperature. The optical density of resulting solutions was read at 700 nm using a UV spectrophotometer.
# [1] = mice; cited from earlier work
# [2] = 4 mM glucose, 50 μg/mL compound
# [3] = 10 mM glucose, 50 μg/mL compound
Compound,"insulin secreted (dose dependent assay) (INS-1 832/13 cells; 4 mM glucose, 5 μg/mL compound, untreated cells 33)","effect on insulin secretion, result in words (INS-1 832/13 cells; [2])","increase in insulin secretion (INS-1 832/13 cells; 4 mM glucose, 50 μg/mL compound, 60 min)",fold increase in insulin secretion (INS-1 832/13 cells; [2]),"insulin secretion (dose dependent assay), result in words (INS-1 832/13 cells; 4 mM glucose, 10, 50, 100 and 250 μg/mL compound)","effect on insulin secretion, result in words (INS-1 832/13 cells; [3])","effect on insulin secretion, result in words (INS-1 832/13 cells; 4 and 10 mM glucose)",high fat diet induced obesity [1],"insulin secreted (INS-1 832/13 cells; 4 mM glucose, 50 μg/mL compound, total secreted by treated cells)",fold increase in insulin secretion (INS-1 832/13 cells; [3]),"effect on insulin secretion, result in words (INS-1 832/13 cells; 4 and 10 mM glucose, listed as delphinidin-3-glucoside)",increase in insulin secretion (INS-1 832/13 cells; [3])
"OC[C@H]1O[C@@H](Oc2cc3c(O)cc(O)cc3[o+]c2-c2ccc(O)c(O)c2)[C@H](O)[C@@H](O)[C@@H]1O [Compound 1, cyanidin-3-glucoside]",46 ng of insulin per mg protein,less active than delphinidin-3-glucoside,9 ng/mg of protein,1.3 fold,no significant difference,more active,most effective insulin secretagogues,reduced,,,,
"OC[C@H]1O[C@@H](Oc2cc3c(O)cc(O)cc3[o+]c2-c2cc(O)c(O)c(O)c2)[C@H](O)[C@@H](O)[C@@H]1O [Compound 2, delphinidin-3-glucoside]",,,,1.8 fold,,,most effective insulin secretagogues,,49 ng/mg of protein,1.4 fold,significantly induced the insulin secretion,
"OC[C@H]1O[C@@H](Oc2cc3c(O)cc(O)cc3[o+]c2-c2ccc(O)c(O)c2)[C@H](O)[C@@H](O)[C@H]1O [Compound 3, cyanidin-3-galactoside]",,did not increase the insulin secretion,,,,,significant increase in insulin secretion,,,1.2 fold,,17 ng/mg of protein
"OCC1OC(Oc2cc3c(O)cc(O)cc3[o+]c2-c2ccc(O)cc2)C(O)C(O)C1O (stereo not shown) [Compound 4, pelargonidin-3-galactoside]",,did not increase the insulin secretion,,,,,did not induce insulin secretion,,,,,
